In US20090053138A1, “Stabilized Aptamers to Platelet Derived Growth Factor and their Use as Oncology Therapeutics” (priority 2002, published 2009):
Where two headings read alike, the source gives them in different places. [invdT] = inverted (3'-3') thymidine

Key:
PDGF BB [1] = biological target: T1, PDGF BB (Homo sapiens, UniProt P01127); test: Competition binding assay, PDGF-BB; design: purchased PeproTech, Rocky Hill, N.J; settings: Table 2, mean affinity, competitive binding assay; read-out: Affinity
T1 sequence (P01127 82-190 limits assumed): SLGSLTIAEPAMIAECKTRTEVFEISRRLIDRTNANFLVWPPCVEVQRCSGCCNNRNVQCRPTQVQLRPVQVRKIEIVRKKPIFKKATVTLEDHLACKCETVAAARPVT
Description: Binding reactions were carried out in phosphate-buffered saline (Cellgro, Herndon, Va.) containing 0.2 mg/mL bovine serum albumin (NEB) and 0.02 mg/mL tRNA (Sigma, St. Louis, Mo.). The reactions were equilibrated for a period of 15-30 minutes at room temperature, then filtered through a sandwich of nitrocellulose (Protran membrane, Perkin-Elmer, Boston, Mass.) and nylon (Hybond membrane, Amersham, Piscataway, N.J.) membranes to separate target bound aptamer from free aptamer.
Next, a study was done to determine whether ARC126 cross reacted with PDGF-BB of species other than human. Competition binding assays were set up by dot blot analysis, as previously described, using human, rat, and mouse PDGF-BB (PeproTech, Rocky Hill, N.J.).
The competitive binding assay previously described was used to determine the in vitro binding affinity and selectivity of ARC594 for different PDGF isoforms. Different concentrations of unlabeled, competitor aptamer were titrated in separate reactions against a fixed (<0.1 nM) amount of ^32P-radiolabeled ARC594 in buffer containing a fixed amount (0.1 nM) of the aptamer's cognate target (PDGF-BB; PeproTech). UnPEGylated version of ARC594 was radiolabeled at the 5′ terminus by incubation with γ-^32P-ATP (ICN) and polynucleotide kinase (NEB). Binding reactions were carried out in phosphate-buffered saline (Cellgro) containing 0.2 mg/mL bovine serum albumin (NEB) and 0.02 mg/mL tRNA (Sigma). The reactions were equilibrated for a period of 15-30 minutes at room temperature, then filtered through a sandwich of nitrocellulose (Protran membrane, Perkin-Elmer) and nylon (Hybond membrane, Amersham) membranes to separate target bound aptamer from free aptamer. […] The data was expressed as the ratio of the counts per minute (CPM) of radioactivity due to ^32P-ARC594 bound to PDGF BB on the nitrocellulose membrane (CPMnitrocellulose or CPMnc) over the total CPM (CPMtotal=CPMnitrocellulose+CPMnylon).

PDGF BB [2] = biological target: T1, PDGF BB; test: 3T3 cell proliferation assay (PDGF-BB induced); type: cell-based, rat; design: purchased PeproTech, Rocky Hill, N.J; settings: for potency compared to ARC127: tyrosine kinase inhibitors
Description: 3T3 cells, a rat fibroblast cell line (ATCC, Manassas, Va.), were plated 3,000 cells/well in a 96 well plate one day prior to the start of the assay in 100 ul DMEM/10% FCS. The following day, cells were washed once with straight DMEM and then 75 ul DMEM/0.8% FCS was added to each well. […] Cells were incubated for 3 days. Following incubation 10 ul MTT (Promega, Madison, Wis.) was added to each well and incubated for an additional 1.5 hours. Media was then removed, 200 ul Isopropanol (2-propanol) was added to each well, cells were re-suspended thoroughly and absorbance at 570 nm was read on a 96 well plate reader.
(§1) 3T3 cells, which are derived from a rat fibroblast cell line (ATCC, Manassas, Va.), were used in a proliferation assay to test potency of modified ARC513 aptamers. 3T3 fibroblast cells have PDGF receptors on their cell-surface and respond to mitogen, e.g., PDGF stimulation by proliferation. The assay was performed as follows: 3T3 cells were plated 3,000 cells/well in a 96 well plate one day prior to the start of the assay in 100 ul DMEM/10% FCS. The following day, cells were washed once with straight DMEM and then 75 ul DMEM/0.8% FCS was added to each well. Then 25 ul of PDGF-BB (PeproTech, Rocky Hill, N.J.) at a 50 ng/ml final concentration was added to each well +/− aptamer condition to be tested. […] The functional PDGF aptamer dilutions usually consisted of 6 points in 2-fold serial dilutions.
(§2) Cells were incubated for 3 days. Following incubation 10 ul MTT (Promega, Madison, Wis.) was added to each well and incubated for an additional 1.5 hours. Media was removed, 200 μl Isopropanol (2-propanol) was added to each well, cells were re-suspended thoroughly and absorbance at 570 nm was read on a 96 well plate reader. The present example depicts the potency comparison of PDGF aptamer ARC: 513 to that of ARC 513 variants.
The 3T3 proliferation assay previously described was used to test potency of all PEG conjugated ARC513 variants described immediately above. The assay was performed as follows: 3T3 cells were plated 3,000 cells/well in a 96 well plate one day prior to the start of the assay in 100 ul DMEM/10% FCS. The following day, cells were washed once with straight DMEM and then 75 ul DMEM/0.8% FCS was added to each well. Then 25 ul of PDGF-BB (PeproTech, Rocky Hill, N.J.) at a 50 ng/ml final concentration was added to each well +/− aptamer condition to be tested. […] The functional PDGF aptamer dilutions usually consisted of 6 points in 2-fold serial dilutions.
as §2, with “ARC513” for “ARC: 513”, “PEGylated ARC513 aptamers.” for “ARC 513 variants.”
as §1, with “3T3” for “3T3 cells, which are derived from a rat fibroblast cell line (ATCC, Manassas, Va.), were used in a proliferation assay to test potency of modified ARC513 aptamers. 3T3”, “100 μl” for “100 ul”
as §2, with “[…]” for “μl”, “reader.” for “reader. The present example depicts the potency comparison of PDGF aptamer ARC: 513 to that of ARC 513 variants.”

[3] = Pharmacokinetics of ARC126 5′ PEG conjugates in mice; settings: IV administration at 10 mg/kg in mice
Description: The pharmacokinetic (PK) data shown in FIG. 12A was subjected to non-compartmental analysis (NCA) using the industry-standard software package WinNonLin™ v.4.0 (Pharsight Corp., Mountain View, Calif.). […] The pharmacokinetic (PK) data shown in FIG. 12B was subjected to noncompartmental analysis (NCA) using the industry-standard software package WinNonLin™ v.4.0 (Pharsight Corp., Mountain View, Calif.).
The pharmacokinetic (PK) data shown in FIG. 12B was subjected to noncompartmental analysis (NCA) using the industry-standard software package WinNonLin™ v.4.0 (Pharsight Corp., Mountain View, Calif.).

[4] = test system: LS174T colon cancer xenograft; settings: Experiment 3
Description: Experimental overview. Human HT-29 or LS174T colon cancer xenotransplants were established in athymic nude mice (Nu/Nu mice, Charles River Labs, Wilmington, Mass.) by injecting mice with 1×10^7 HT29 cells (ATCC, Manassas, Va.), or 2×10^6 LS174T cells (ATCC Manassas, Va.) sub-cutaneously and allowing the tumors to grow for 5 days. On day 5, two dimensional measurements of the established tumors were taken using a digital caliper. Once tumor measurements were taken, the mice were randomized into groups such that the average tumor size was the same in each group. […]
A third experiment (Experiment 3) was designed to test ARC308/irinotecan and GLEEVEC™/irinotecan dosing regimens in a colon cancer xenotransplant model using human colon carcinoma cell line LS174T (ATCC). […] ARC308 was dosed via intraperitoneal delivery at 50 mg/kg once daily, and GLEEVEC™ was dosed at 50 mg/kg once daily, Monday through Friday. ARC308 prevents PDGF-BB from binding the PDGF receptor; this molecule has a 30K PEG attached. […] The results are statistically significant (two tailed students T-test).
An efficacy analysis of three treatment groups in this study is shown in Table 10 in terms of log cell kill and log cell kill net. Log cell kill is the log(base10) of the number of tumor cells before treatment divided by the number of cells after treatment. […] A fourth experiment (Experiment 4) was designed to further test ARC308/irinotecan dosing regimens in a colon cancer xenotransplant model using human colon carcinoma cell line LS174T (ATCC). […]

[5] = Table 2, mean activity, 3T3 proliferation assay, read-out: Activity

124 (ACCATGATCCTGTG; 3' inverted dT, further chemistry not given here) [compound 124]
Kd (PDGF BB [1]): 0.21 nM
IC50 (PDGF BB [2]; [5]): 3.45 nM
IC50 (PDGF BB [2]; Table 6, PDGF-BB 50 ng/ml, nM, read-out: Mean IC50): 20.7 nM

5′-[20K PEG]-(SEQ ID NO:1)-HEG-(SEQ ID NO:2)-HEG-(SEQ ID NO:3)-3′-dT-3′ (chain 1 CAGGCUACG; chain 2 CGTAGAGCAUCA; chain 3 TGATCCUG; 5′ 20 kDa PEG; HEG spacers; 3′ dT cap; synthetic aptamer; modified_base (6)..(6) uridine is 2′-fluoro; modified_base (8)..(8) cytidine is 2′-fluoro; modified_base (9)..(9) gm; modified_base (5)..(5) gm; modified_base (7)..(7) gm; modified_base (10)..(10) uridine is 2′-fluoro; modified_base (11)..(11) cytidine is 2′-fluoro; modified_base (12)..(12) adenosine is 2′-O-Methyl; modified_base (5)..(6) cytidine is 2′-fluoro; modified_base (7)..(7) uridine is 2′-fluoro; modified_base (8)..(8) gm) [ARC240]
Cmax [3]: 34.3 µM
MRT [3]: 1.16 h
Vs [3]: 0.0003 L/kg
t1/2 [3]: 0.94 h

SEQ ID NO: 42-PEG-SEQ ID NO: 43-PEG-SEQ ID NO: 44 (chain 1 CAGGCTACG; chain 2 CGTAGAGCATCA; chain 3 TGATCCTG; DNA, backbone not given here; PEG-6 spacers join the three pieces) [ARC299]
binding affinity and cell-based assay activity (in words) (PDGF BB [2]; in vitro biochemical binding and cell-based proliferation assays): significantly reduced activity/potency

Cc1cc2ncc(-c3ccc(O)c(O)c3)nc2cc1C [AG 1433, reference compound]
unspecific toxic effects, concentration from which visible (PDGF BB [2]; signal lower than no treatment): ≥ 300 nM
potency compared to ARC127 (PDGF BB [2]): much worse potencies

Cc1cc2ncc(-c3ccccc3)nc2cc1C [AG 1295, reference compound]
potency compared to ARC127 (PDGF BB [2]): much worse potencies

5′-(SEQ ID NO: 69)-PEG-(SEQ ID NO: 40)-PEG-(SEQ ID NO: 70)-[3′T]-3′ (chain 1 CCCAGGCTACG; chain 2 CGTAGAGCAUCA; chain 3 TGATCCTGGG; piece 1: 2'-O-methyl at 11, other sugars and backbone not given here; piece 2: 2'-O-methyl at 5, 7, 10, 11, 12, other sugars and backbone not given here; piece 3: 2'-O-methyl at 5, 8, 9, 10, 3' [invdT], other sugars and backbone not given here; pieces joined by PEG spacers) [ARC513]
IC50 (PDGF BB [2]; PDGF-BB 50 ng/ml, read-out: IC50 values routinely displayed): < 10 nM

5′-(SEQ ID NO: 36)-PEG-(SEQ ID NO: 37)-PEG-(SEQ ID NO: 38)-[3′]-3′ (chain 1 CAGGCTACG; chain 2 CGTAGAGCATCA; chain 3 TGATCCTG; piece 1: 2'-O-methyl at 9, other sugars and backbone not given here; piece 2: 2'-O-methyl at 5, 7, 12, other sugars and backbone not given here; piece 3: 2'-O-methyl at 8, other sugars and backbone not given here; further chemistry not fully specified) [ARC276]
Kd (PDGF BB [1]): 0.23 nM
IC50 (PDGF BB [2]; [5]): 18 nM

CCc1c2c(nc3ccc(OC(=O)N4CCC(N5CCCCC5)CC4)cc13)-c1cc3c(c(=O)n1C2)COC(=O)[C@]3(O)CC [Irinotecan, irinotecan, reference compound]
Activity Assessment [4]: Active
Log cell kill ([4]; target size 1000 mm^3, ARC308 50 mg/kg, irinotecan 150 mg/kg, combination extrapolated): 1.95
Log cell kill net ([4]; treatment duration 18 days, combination extrapolated): 0.28
